This experiment relates to GUMC-403. The experiment is described as follows: viability at highest tested concentration (max response) relative to DMSO (% of DMSO control); higher = less cytotoxic. The settings on record: library / dose series: MIPE library, 11-point 1:3 dilution, 48 h. An outline of the steps:
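Patient-derived GUMC-403 papilloma cells grown by conditional reprogramming were plated at 700/well in 5 μL F + Y medium in 1536-well plates and incubated overnight at 37 °C. They then received 23 nL of MIPE 4.0 compounds by pin tool (11-point 1:3 series) for 48 h. CellTiter-Glo luminescence was read on a ViewLux and normalised with DMSO wells as 100% and empty wells as 0%. The value is viability at the highest tested concentration relative to DMSO control.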

With `O=C(CCCCCCNC(=O)c1cnc(N(c2ccccc2)c2ccccc2)nc1)NO`, the viability (top concentration 46.1 µM) amounted to 117.
Still for that read-out and setting: under `Cc1ccc(F)c(NC(=O)Nc2ccc(-c3cccc4[nH]nc(N)c34)cc2)c1` stands 50.7; under `O=C1NC(O)CCN1[C@@H]1O[C@H](CO)[C@@H](O)[C@H]1O` (stereo partly drawn), 124; under `OCc1ccc(-c2ccc(-c3ccc(CO)s3)o2)s1`, 117.
In turn, `C=CC(=O)Nc1cccc(Sc2nc(Nc3ccc(N4CCN(C)CC4)cc3)ncc2Cl)c1` had a viability (top concentration 46.1 µM) of 70.3.
Where the note is “top concentration 46.1 µM”, `Cc1c(O)cccc1C(=O)N[C@@H](CSc1ccccc1)[C@H](O)CN1C[C@H]2CCCC[C@H]2C[C@H]1C(=O)NC(C)(C)C` yielded a viability of 126.
Where the note is “top concentration 46.1 µM”, `CN1CCN(c2ccc([N+](=O)[O-])c3no[n+]([O-])c23)CC1` gave a viability of 108.
Consider `C=CCn1c(=O)c2cnc(Nc3ccc(N4CCN(C)CC4)cc3)nc2n1-c1cccc(C(C)(C)O)n1`, for which, where the note is “top concentration 46.1 µM”, the viability came out at 63.1.
For the setting “top concentration 46.1 µM”, `Cc1cn[nH]c1` came in with a viability of 126.
Turning to `NC(=O)c1c(OCc2c(F)cc(Br)cc2F)nsc1NC(=O)NCCCCN1CCCC1`, for the setting “top concentration 46.1 µM”, the viability stood at 101.
On to `COC(=O)Nc1nc2cc(C(=O)c3ccccc3)ccc2[nH]1`, for which the viability (top concentration 46.1 µM) was determined as 88.2.
In turn, `Oc1cc(-c2nc(-c3ccccc3)[nH]c2-c2ccncc2)ccc1Cl` returned a viability (top concentration 46.1 µM) of 91.4.
On the same count and under the same terms, as for `CC(=O)[C@H]1CC[C@H]2[C@@H]3C/C=C4/C[C@@H](O)CC[C@]4(C)[C@H]3CC[C@]12C`, the figure is 115; as for `OC(=O)\C1=C\N(C2=CC=C(F)C=C2)C3=C(C=C(F)C(=C3)N4CCNCC4)C1=O`, 120.
Consider `CC(C)=CC[C@@H](O)C/1=C/C(=O)C2=C(O)C=CC(=C2C1=O)O`, for which the viability (top concentration 46.1 µM) is 78.5.
Regarding `CCCc1cc(C(N)=S)ccn1`, for the setting “top concentration 46.1 µM”, the viability is 112.
For `COc1ccc([S+](=O)([O-])Nc2cccnc2Nc2ccc(O)cc2)cc1`, under “top concentration 46.1 µM”, the viability is 99.9.
The same measure, in the same setting: under `CC(N)C12CC3CC(CC(C3)C1)C2` (stereo not drawn) stands 104; under `C[C@]12CCC3c4ccc(O)cc4CCC3C1CCC2=O` (stereo partly drawn), 94.8.
With `CN[C@H]1[C@H](O[C@@H]2[C@H](O[C@@H]3[C@@H](O)[C@@H](O)[C@@H](NC(=N)N)[C@@H](O)[C@H]3NC(=N)N)O[C@H](C)[C@@]2(O)C=O)O[C@@H](CO)[C@@H](O)[C@H]1O`, the viability (top concentration 13.4 µM) came out at 114.
As to `CCOC(CN1C(=O)[C@](CC(=O)Nc2ccc(C)cc2)(NC(=O)Nc2ccc(C)cc2)c2ccccc21)OCC`, the viability (top concentration 46.1 µM) was found to be 129.
Where the note is “top concentration 46.1 µM”, `CC1=C(/C=C/C(C)=C/C=C/C(C)=C\C(=O)O)C(C)(C)CCC1` yielded a viability of 90.
Same read-out and setting: under `CNC1CCC(N(Cc2cccc(-c3ccncc3)c2)C(=O)c2sc3c(F)ccc(F)c3c2Cl)CC1` (stereo not drawn) stands 75.5; under `COc1cc2c(cc1OC)CN(CCc1ccc(NC(=O)c3cccc4c(=O)c5cccc(OC)c5[nH]c34)cc1)CC2`, 132.
In turn, `O=[N+]([O-])c1ncc[nH]1` registered a viability (top concentration 46.1 µM) of 82.9.
Same read-out and setting: as for `CC(C)NCC(O)COc1ccc(COCCOC(C)C)cc1` (stereo not drawn), the figure is 117.
Regarding `CN[C@@H](C)[C@H]1[C@H](O)C[C@@]2(C)[C@@H]3CC[C@H]4C(C)(C)[C@@H](NC)CC[C@@]45C[C@@]35CC[C@]12C`, the viability (top concentration 46.1 µM) was 96.
Consider `Cn1c(=O)c2c(ncn2C)n(C)c1=O.O=C(O)CC(O)(CC(=O)O)C(=O)O`, for which the viability (top concentration 46.1 µM) stood at 98.9.
`CCN[C@H]1C[C@H](C)[S+](=O)([O-])c2sc([S+](N)(=O)[O-])cc21` gave a viability (top concentration 46.1 µM) of 103.
For the setting “top concentration 46.1 µM”, `Cc1ccccc1C(C(=O)NC1CCCCC1)N(C(=O)CNc1ccc(C#N)cc1)c1cccc(F)c1` (stereo not drawn) showed a viability of 108.
Turning to `Cc1onc(-c2ccccc2)c1C(=O)N[C@@H]1C(=O)N2[C@@H]1SC(C)(C)[C@@H]2C(=O)[O-].[Na+]`, the viability (top concentration 46.1 µM) was 109.
Under “top concentration 46.1 µM”, `CCC1(C)CC(=O)NC1=O` (stereo not drawn) displayed a viability of 94.5.
Take `O=C1c2c(O)cc(O)cc2OC(c2ccc(O)c(O)c2)C1O` (stereo not drawn): the viability (top concentration 46.1 µM) was 116.
